Reference: patent US20200079814A1, “Nucleotides comprising an N-[(S)-1-cyclobutoxycarbonyl]phosphoramidate moiety and analogs and application thereof” (priority 2017, published 2020)
Where “and” joins values, the source holds several entries; their conditions need not be identical. Equal values may be shown once. Read-outs that look alike come from different tables or passages of the source. Marks after values point to notes of the source that are not given here.

What was measured:
HCV = conditions: literature; cited from earlier work
[1] = system: HIV strain NL4.3 carrying the GFP-reporter (NL4.3-GFP); assay: microbe, parasite or virus in culture; format: cell-based; conditions: for EC50: Human immunodeficiency virus 1, SUP-T1, 45 h; for SI = CC50/EC50: SupT1 cells
Experimental: (§1) The antiviral activity of tested compounds was evaluated on the T-lymphocytes line, SupT1. The cells were infected with the HIV strain NL4.3 carrying a gene encoding the green fluorescent protein (NL4.3-GFP). A virus preparation was obtained by means of transfection of the 293T cells of […] DNA. After 48 hours of transfection, the medication was frozen and stored until being used. To increase the efficiency of infection, the suspension of SupT1 cells was sedimented from the infection mixture by centrifugation. Tested compounds were added to the cells immediately before adding the virus. After 2 hours of incubation, the infection mixture was replaced by a fresh culture medium with tested compounds. The efficiency of infection was evaluated after 45 hours by computing the percentage of fluorescence-bright cells against uninfected cell cultures. Concurrently, the cytotoxicity of tested compounds was evaluated in the same, but uninfected, cell line SupT1 using the XTT reagent. To determine antiviral activity and cytotoxicity, serial tenfold dilutions of the preparations were used (starting with 10 j-M for antiviral activity and from 100 μM for cytotoxicity). DMSO (0.1%) was used for negative control. The values of EC50, CC50 and SI (selectivity index) were found. The quality of tests was evaluated based on the following controls: signal to background ratio, integrase inhibitor raltegravir (1 μM), and reproducibility of test results. Emetine (0.03, 0.09, and 0.2 μM) was used as the reference for cytotoxicity evaluation.

[2] = Cytotoxicity in uninfected SupT1 cells (XTT reagent); format: cell-based; conditions: human, uninfected SupT1 cells (T-lymphocyte line)
Experimental: as §1

physchem = conditions: for half-life at 1 μM: simulated gi fluid
Experimental: (§2) Initial compositions comprising the prodrug of formula 1B.7 (the tested compounds) were prepared with a concentration of 10 mM in DMSO. From said compositions, 100-fold working solutions were prepared with a concentration of 100 μM in a mixture of acetonitrile:water with a volumetric ratio of 1:1.
b) Stability in Artificial Gastric and Intestinal Juices.
The tested composition comprising the prodrug of formula 1B.7 in a final concentration of 1 μM was incubated in artificial gastric juice (0.2% NaCl in 0.7% v/v HCl) and artificial intestinal juice (0.05M KH2PO4, pH 6.75). The incubation was performed in a Vortemp56 shaking incubator at 37° C. with stirring at a rate of 300 rev/min. […] The samples were then centrifuged, and the supernatant (150 μl) was sampled for analysis […]. The incubation was performed in two replicates, with each sample measured twice.
Samples were analyzed using an HPLC-MS/MS technique developed for each tested prodrug, wherein the chromatographic system 1290 Infinity II (Agilent Technologies) was combined with the tandem mass spectrometer QTRAP5500 (AB Sciex). When developing conditions for mass-spectrometric detection, the solutions of tested compounds in a mixture of acetonitrile-water 1:1 with a concentration of 100 ng/ml were injected directly into the mass spectrometer using a syringe pump with electrospray ionization in a positive ion mode. Scanning in a total ion current mode (MS1) allowed us to identify a molecular ion for each compound, and basic product ions were recorded in MS2 mode. Then, to attain maximum sensitivity, the MS/MS technique was optimized in MRM mode. In quantitative chromatogram processing, the most intensive MRM transition was used for the analyte and the internal standard. Separation was carried out by means of linear gradient elution chromatography on a YMC Triart C18 column (50×2 mm, 1.9 μm) in a mobile phase consisting of 0.1% formic acid in water and 0.1% formic acid in acetonitrile. Tolbutamide (Fluka) was used as the internal standard.
(§3) Half-life (T1/2) was found from the kinetics of tested prodrug elimination in an antiviral composition during incubation in a biological matrix. The computations were based on the values of chromatographic peak areas for compounds in test samples normalized to the internal standard signal. From linear dependence of log normalized areas of chromatographic peaks on time, the constant of elimination rate was calculated (k is linear section slope).

[3] = pooled human blood plasma, 1 μM, 37° C.
Experimental: as §2
(§4) The samples were then centrifuged, and the supernatant (150 μl) was sampled for analysis […]. The incubation was performed in two replicates, with each sample measured twice.
(§5) Samples were analyzed using an HPLC-MS/MS technique developed for each tested prodrug, wherein the chromatographic system 1290 Infinity II (Agilent Technologies) was combined with the tandem mass spectrometer QTRAP5500 (AB Sciex). […] Scanning in a total ion current mode (MS1) allowed us to identify a molecular ion for each compound, and basic product ions were recorded in MS2 mode. […] In quantitative chromatogram processing, the most intensive MRM transition was used for the analyte and the internal standard. […]
as §3, with “The computations were based on the values of chromatographic peak areas for compounds in test samples normalized to the internal standard signal.” left out

[4] = Stability in human liver S9 fraction
Experimental: as §2, §4, §5
as §3, with “The computations were based on the values of chromatographic peak areas for compounds in test samples normalized to the internal standard signal.” left out

[5] = system: HCV replicon, genotype 1b (gT1b HCV NS5B); conditions: cited from earlier work; for EC50: from hcvdruginfo.ca
[6] = from M. J. Sofia et al. J. Med. Chem. 2010; cited from earlier work
[7] = from M. J. Sofia et al. J. Med. Chem. 2010; cited from earlier work; remark: listed apart in the source
[8] = from M. J. Sofia et al. J. Med. Chem. 2010; cited from earlier work; remark: listed apart in the source
[9] = from M. J. Sofia et al. J. Med. Chem. 2010; cited from earlier work; remark: listed apart in the source
[10] = system: HCV replicon, genotype 1b (gT1b HCV NS5B); assay: Anti-HCV activity in Huh7 cells stably transfected with an HCV replicon; format: cell-based
Experimental: The antiviral activity of tested compositions comprising prodrugs was evaluated using an Huh7 human hepatocellular carcinoma cell line stably transfected with an HCV replicon. A cell suspension in a complete culture medium (DMEM 1X, Cellgro; cat. #10-013-CV) was transferred into 96-well plates (50 μl per well) with a final density of 7500 cells per well. The serial dilutions of tested prodrugs were prepared from a fresh 200-fold generic solution in DMSO with 11 concentration points dilution for each step, starting from 20 nM in a complete medium and were used as 2-fold solutions in two replicates. Minimum 4 hours after planting the cells, 50 μl of serial prodrug dilutions was added to each well. […] The plate with cells was incubated for 3 days at 37° C. under humidified 5% CO2. Upon completion of incubation, the medium was removed by turning the plate over and shaking it carefully. The cells were fixed for one minute with 100 μl of a 1:1 acetone:methanol solution, washed 3 times with a phosphate buffer (PBS), and blocked for 1 h at room temperature using a 10% fetal bovine serum (FBS) in PBS (150 μl/well). […] The reaction was stopped by 2N H2SO4 (100 μl/well), and OD490 was measured using the multifunctional reader Victor^3 V 1420 (Perkin Elmer). The values of EC50 for tested prodrugs were measured from an activity curve plotted using the GraphPad Prizm software.

[11] = system: Huh7 human hepatocellular carcinoma cell line; conditions: from M. J. Sofia et al. J. Med. Chem. 2010; cited from earlier work
SupT1 cells = assay: Cytotoxicity in uninfected SupT1 cells (XTT reagent); format: cell-based
Experimental: as §1

[12] = gT1b, from M. J. Sofia et al. J. Med. Chem. 2010

CC(C)(CO)C(=O)SCCOP(=O)(NCc1ccccc1)OC[C@H]1OC(n2cnc3c(=O)[nH]c(N)nc32)[C@](C)(O)[C@@H]1O (stereo partly shown) [IDX-184]
EC50 (HCV): 400 nM

COc1nc(N)nc2c1ncn2[C@@H]1O[C@H](COP(=O)(N[C@@H](C)C(=O)OCC(C)(C)C)Oc2cccc3ccccc23)[C@@H](O)[C@@]1(C)O (stereo partly shown) [INX-08189]
EC50 (HCV): 10 nM

COc1nc(N)nc2c1ncn2C1O[C@H](COP(=O)(N[C@@H](C)C(=O)OC(C)C)Oc2ccccc2)[C@@H](O)[C@@]1(C)F (stereo partly shown) [PSI-353661]
EC90 (HCV): 8 nM

C[C@H](Cn1cnc2c(N)ncnc21)OC[P@@](=O)(N[C@@H](C)C(=O)OC1CCC1)Oc1ccccc1 [Prodrug 1A.1, (S)-cyclobutyl 2-((S)-(((R)-1-(6-amino-9H-purin-9-yl)propan-2-yloxy)methyl) (phenoxy)phosphorylamino)-propanoate]
EC50 [1]: 27 nM | selectivity, times higher than TAF ([1]; SupT1 HIV test, versus TAF): 1.4 times | SI = CC50/EC50 [1]: >3704 | CC50 [2]: > 100000 nM

C[C@H](Cn1cnc2c(N)ncnc21)OC[P@](=O)(N[C@@H](C)C(=O)OC1CCC1)Oc1ccccc1 [Prodrug 1A.2, (S)-cyclobutyl 2-((R)-(((R)-1-(6-amino-9H-purin-9-yl)propan-2-yloxy)methyl) (phenoxy)phosphorylamino)-propanoate]
EC50 [1]: 38 nM | SI = CC50/EC50 [1]: >2632 | CC50 [2]: > 100000 nM

C[C@H](N[P@](=O)(OC[C@H]1O[C@@H](n2ccc(=O)[nH]c2=O)[C@](C)(F)[C@@H]1O)Oc1ccccc1)C(=O)OC1CCC1 [Prodrug 1B.7, (S)-cyclobutyl 2-{(S)-[(2R,3R,4R,5R)-5-(3,4-dihydro-2,4-dioxo-2H-pyrimidin-1-yl)-3-hydroxy-4-methyl-4-fluoro-tetrahydrofuran-2-ylmethoxy]-phenoxy-phosphorylamino}-propanoate]
T1/2 SGF (physchem; artificial gastric juice, 1 μM, 37° C.): 12.7 h | T1/2 SIF (physchem; artificial intestinal juice, 1 μM, 37° C.): >24 h | half-life at 1 μM (physchem): 12.7 to 17 h | half-life at 1 μM (physchem; pH 6.75): > 20 h | T1/2 human plasma [3]: >24 h | metabolic rate in human S9 fraction, times faster than Sovaldi ([4]; versus Sovaldi): 11 times | metabolic rate in human S9 fraction, times faster than compound 2.1 ([4]; versus compound of formula 2.1): 28 times

C[C@H](NP(=O)(OC[C@H]1O[C@@H](n2ccc(=O)[nH]c2=O)[C@](C)(F)[C@@H]1O)Oc1ccccc1)C(=O)OC1CCCCC1 (stereo partly drawn) [Prodrug 2.1, cyclohexyl (S)-2-{[(2R,3R,4R,5R)-5-(2,4-dioxo-3,4-dihydro-2H-pyrimidin-1-yl)-4-fluoro-3-hydroxy-4-methyl-tetrahydrofuran-2-ylmethoxy]-phenoxy-phosphorylamino}-propionate]
EC90 [5, 12]: 250 nM | T1/2 human S9 [6]: 1.4 h | T1/2 SGF [7]: 17* h | T1/2 SIF [8]: >20* h | T1/2 human plasma [9]: >24* h

C[C@H](N[P@](=O)(OC[C@H]1O[C@@H](n2ccc(=O)[nH]c2=O)[C@](C)(F)[C@@H]1O)Oc1ccccc1)C(=O)OC1CC1 [Prodrug 2.2, (S)-cyclopropyl 2-((S)-(((2R,3R,4R,5R)-5-(2,4-dioxo-3,4-dihydropyrimidin-1(2H)-yl)-3-hydroxy-4-methyl-4-fluoro-tetrahydrofuran-2-yl)methoxy)-(phenoxy)-phosphorylamino)-propanoate]
EC90 ([10]; 10% FBS): 410 nM | EC50 ([10]; Hepatitis C virus, Huh-7, 10% FBS): 73 nM

CC(C)OC(=O)[C@H](C)NP(=O)(OC[C@H]1O[C@@H](n2ccc(=O)[nH]c2=O)[C@](C)(F)[C@@H]1O)Oc1ccccc1 (stereo partly drawn) [Sovaldi ®, isopropyl (S)-2-{[(2R,3R,4R,5R)-5-(2,4-dioxo-3,4-dihydro-2H-pyrimidin-1-yl)-4-fluoro-3-hydroxy-4-methyl-tetrahydrofuran-2-ylmethoxy]-phenoxy-phosphorylamino}-propionate]
EC90 [5, 12]: 520 nM | EC90 ([5]; gT1b, from M. J. Sofia et al. J. Med. Chem. 2010, listed as Sovaldi®): 590 nM | EC50 ([5]; gT1b): 45 to 170 nM | EC90 ([5]; genotype 1b (gT1b) HCV): 590 nM | EC50 ([5]; genotype 1b (gT1b) HCV): 45 to 170 nM | CC90 [11]: > 100000 nM | T1/2 human S9 [6]: 0.54 h and 0.57 h | T1/2 SGF [7]: 22.0* h | T1/2 SIF [8]: >24* h | T1/2 human plasma [9]: >24* h

CC(C)OC(=O)[C@H](C)N[P@](=O)(CO[C@H](C)Cn1cnc2c(N)ncnc21)Oc1ccccc1 [TAF, temofovir alafenamide]
EC50 [1]: 35 nM | SI = CC50/EC50 [1]: 2857 | CC50 (SupT1 cells): > 100000 nM
